Reference: the NIST ThermoML archive (doi:10.1021/je049671t)

Test: xn = mol fraction of the nth substance listed
Settings: Liquid, Vibrating tube method

CC(C)C [2-methylpropane] + CCCC
Settings	mass density [kg/m3]
300 K, 5514.6 kPa, x2 = 0.25	564.1
300 K, 5950.5 kPa, x2 = 0.75	574.92
300 K, 5960.3 kPa, x2 = 0.5	570.04
300 K, 6036.6 kPa, x2 = 0.25	565.05
300 K, 6473.1 kPa, x2 = 0.75	575.78
300 K, 6498 kPa, x2 = 0.25	565.9
300 K, 6511.5 kPa, x2 = 0.5	571.01
300 K, 7001.6 kPa, x2 = 0.25	566.76
300 K, 7003.6 kPa, x2 = 0.5	571.85
300 K, 7005.5 kPa, x2 = 0.75	576.66
320 K, 978.9 kPa, x2 = 0.5	535.28
320 K, 1008.4 kPa, x2 = 0.75	541.4
320 K, 1010.3 kPa, x2 = 0.25	529.04
320 K, 1496.2 kPa, x2 = 0.25	530.4
320 K, 1506.1 kPa, x2 = 0.75	542.64
320 K, 1594.1 kPa, x2 = 0.5	536.89
320 K, 2006 kPa, x2 = 0.75	543.82
320 K, 2007.9 kPa, x2 = 0.5	537.95
320 K, 2013.6 kPa, x2 = 0.25	531.82
320 K, 2503.8 kPa, x2 = 0.75	545.03
320 K, 2511 kPa, x2 = 0.25	533.15
320 K, 2513.8 kPa, x2 = 0.5	539.22
320 K, 2989.3 kPa, x2 = 0.25	534.4
320 K, 2990.8 kPa, x2 = 0.75	546.14
320 K, 3020.8 kPa, x2 = 0.5	540.47
320 K, 3465.4 kPa, x2 = 0.5	541.53
320 K, 3504.2 kPa, x2 = 0.25	535.74
320 K, 3510.6 kPa, x2 = 0.75	547.3
320 K, 3972.8 kPa, x2 = 0.5	542.72
320 K, 3986.7 kPa, x2 = 0.75	548.41
320 K, 4006.4 kPa, x2 = 0.25	537
320 K, 4485.3 kPa, x2 = 0.25	538.17
320 K, 4492.1 kPa, x2 = 0.5	543.94
320 K, 4515.1 kPa, x2 = 0.75	549.56
320 K, 4992.4 kPa, x2 = 0.5	545.07
320 K, 4997.8 kPa, x2 = 0.75	550.6
320 K, 4998.1 kPa, x2 = 0.25	539.39
320 K, 5465.3 kPa, x2 = 0.5	546.12
320 K, 5506.3 kPa, x2 = 0.25	540.6
320 K, 5508.2 kPa, x2 = 0.75	551.69
320 K, 5970.9 kPa, x2 = 0.25	541.67
320 K, 5971.8 kPa, x2 = 0.5	547.22
320 K, 6015.9 kPa, x2 = 0.75	552.74
320 K, 6462.7 kPa, x2 = 0.5	548.28
320 K, 6488.4 kPa, x2 = 0.75	553.71
320 K, 6514.9 kPa, x2 = 0.25	542.91
320 K, 7034.9 kPa, x2 = 0.25	544.07
320 K, 7065.7 kPa, x2 = 0.75	554.85
320 K, 7093.8 kPa, x2 = 0.5	549.62
340 K, 998.6 kPa, x2 = 0.5	506.59
340 K, 1008.5 kPa, x2 = 0.75	513.55
340 K, 1505.9 kPa, x2 = 0.75	515.25
340 K, 1510 kPa, x2 = 0.25	501.39
340 K, 1561.3 kPa, x2 = 0.5	508.67
340 K, 2003.4 kPa, x2 = 0.25	503.24
340 K, 2008.5 kPa, x2 = 0.5	510.27
340 K, 2020.5 kPa, x2 = 0.75	516.97
340 K, 2495.8 kPa, x2 = 0.25	505.08
340 K, 2500.9 kPa, x2 = 0.75	518.54
340 K, 2527.9 kPa, x2 = 0.5	512.06
340 K, 3001.4 kPa, x2 = 0.5	513.65
340 K, 3005.7 kPa, x2 = 0.75	520.07
340 K, 3009.8 kPa, x2 = 0.25	506.91
340 K, 3499.6 kPa, x2 = 0.75	521.61
340 K, 3512.9 kPa, x2 = 0.25	508.67
340 K, 3521.9 kPa, x2 = 0.5	515.35
340 K, 4004.8 kPa, x2 = 0.25	510.31
340 K, 4004.8 kPa, x2 = 0.75	523.11
340 K, 4042.3 kPa, x2 = 0.5	516.97
340 K, 4496.4 kPa, x2 = 0.75	524.53
340 K, 4508.6 kPa, x2 = 0.25	511.95
340 K, 4526.2 kPa, x2 = 0.5	518.46
340 K, 4981.3 kPa, x2 = 0.25	513.47
340 K, 4988.5 kPa, x2 = 0.5	519.84
340 K, 4990.6 kPa, x2 = 0.75	525.87
340 K, 5500.3 kPa, x2 = 0.25	515.08
340 K, 5502 kPa, x2 = 0.5	521.34
340 K, 5515.9 kPa, x2 = 0.75	527.37
340 K, 5973.6 kPa, x2 = 0.75	528.61
340 K, 5999.1 kPa, x2 = 0.25	516.58
340 K, 6016.6 kPa, x2 = 0.5	522.8
340 K, 6476.8 kPa, x2 = 0.5	524.07
340 K, 6496.3 kPa, x2 = 0.75	529.99
340 K, 6508.8 kPa, x2 = 0.25	518.07
340 K, 7019.3 kPa, x2 = 0.75	531.33
340 K, 7019.9 kPa, x2 = 0.25	519.55
340 K, 7084.7 kPa, x2 = 0.5	525.72
360 K, 1517.1 kPa, x2 = 0.75	483.05
360 K, 1517.3 kPa, x2 = 0.5	475.07
360 K, 1523.6 kPa, x2 = 0.25	466.34
360 K, 1975.7 kPa, x2 = 0.25	469.15
360 K, 1976.3 kPa, x2 = 0.75	485.36
360 K, 2018.5 kPa, x2 = 0.5	477.84
360 K, 2482.6 kPa, x2 = 0.25	472.1
360 K, 2496 kPa, x2 = 0.75	487.85
360 K, 2525 kPa, x2 = 0.5	480.5
360 K, 2961.3 kPa, x2 = 0.75	489.97
360 K, 3005.9 kPa, x2 = 0.5	482.91
360 K, 3010.1 kPa, x2 = 0.25	474.99
360 K, 3489.3 kPa, x2 = 0.75	492.24
360 K, 3507.7 kPa, x2 = 0.25	477.58
360 K, 3511.2 kPa, x2 = 0.5	485.28
360 K, 3977.2 kPa, x2 = 0.75	494.26
360 K, 4007.3 kPa, x2 = 0.25	480.03
360 K, 4019.1 kPa, x2 = 0.5	487.57
360 K, 4443.6 kPa, x2 = 0.75	496.16
360 K, 4493 kPa, x2 = 0.25	482.35
360 K, 4510.2 kPa, x2 = 0.5	489.71
360 K, 4948.8 kPa, x2 = 0.75	498.12
360 K, 5010.2 kPa, x2 = 0.25	484.66
360 K, 5018.9 kPa, x2 = 0.5	491.8
360 K, 5499.8 kPa, x2 = 0.75	500.18
360 K, 5503.6 kPa, x2 = 0.25	486.78
360 K, 5508.6 kPa, x2 = 0.5	493.77
360 K, 5964.2 kPa, x2 = 0.75	501.91
360 K, 6002.5 kPa, x2 = 0.25	488.86
360 K, 6019.4 kPa, x2 = 0.5	495.75
360 K, 6484.4 kPa, x2 = 0.75	503.73
360 K, 6497.2 kPa, x2 = 0.25	490.83
360 K, 6511.4 kPa, x2 = 0.5	497.56
360 K, 7022.1 kPa, x2 = 0.5	499.47
360 K, 7041 kPa, x2 = 0.25	492.93
360 K, 7073.3 kPa, x2 = 0.75	505.68
380 K, 1992.3 kPa, x2 = 0.75	445.43
380 K, 2496.5 kPa, x2 = 0.25	428.54
380 K, 2506.6 kPa, x2 = 0.5	440.41
380 K, 2519.3 kPa, x2 = 0.75	449.94
380 K, 3005 kPa, x2 = 0.5	444.82
380 K, 3007.8 kPa, x2 = 0.25	433.95
380 K, 3014.5 kPa, x2 = 0.75	453.77
380 K, 3482.8 kPa, x2 = 0.75	457.09
380 K, 3498.2 kPa, x2 = 0.25	438.53
380 K, 3519 kPa, x2 = 0.5	448.92
380 K, 4000 kPa, x2 = 0.25	442.76
380 K, 4015.3 kPa, x2 = 0.5	452.56
380 K, 4022 kPa, x2 = 0.75	460.64
380 K, 4463.2 kPa, x2 = 0.25	446.33
380 K, 4476.8 kPa, x2 = 0.75	463.44
380 K, 4521.7 kPa, x2 = 0.5	456
380 K, 4994 kPa, x2 = 0.75	466.44
380 K, 5001.3 kPa, x2 = 0.5	459.04
380 K, 5004.6 kPa, x2 = 0.25	450.19
380 K, 5481.2 kPa, x2 = 0.25	453.35
380 K, 5504.5 kPa, x2 = 0.75	469.24
380 K, 5511.6 kPa, x2 = 0.5	462.08
380 K, 5986.7 kPa, x2 = 0.25	456.5
380 K, 5998.4 kPa, x2 = 0.75	471.8
380 K, 6010.6 kPa, x2 = 0.5	464.88
380 K, 6475.4 kPa, x2 = 0.75	474.16
380 K, 6476.8 kPa, x2 = 0.25	459.36
380 K, 6505.2 kPa, x2 = 0.5	467.52
380 K, 6967.5 kPa, x2 = 0.75	476.48
380 K, 6981.4 kPa, x2 = 0.5	469.94
380 K, 7003.2 kPa, x2 = 0.25	462.28

mass density [kg/m3]
Settings	300 K	320 K	340 K	360 K	380 K
x2 = 0.25	553.87	527.89	499.35	–	424.73
x2 = 0.5	559.44	534.14	506.18	474.18	435.21
x2 = 0.75	564.78	540.17	512.91	481.73	445.14
